Series [1] relates to Atrial natriuretic factor (ANF) expression, C2C12 cells. Briefly: ANF test (ANF promoter luciferase reporter) in C2C12 cells. The format is cell-based, murine. Also on record: key to Evaluation (luminescence in relation to the blank): −: decrease of luminescence compared to the blank value; +: measurable increase; ++: at least 1.5-fold increase; +++: at least 2-fold increase. Conditions: for Evaluation (luminescence in relation to the blank): C2C12 cells (*), compound 1 μM in DMSO, relative to DMSO blank. From the text:
(§1) Atrial natriuretic factor (ANF) or atrial natriuretic peptide (ANP) is a cyclic peptide hormone made up of 28 amino acids, which is predominantly emitted by the muscle cells (myocytes) of the atrium of the heart. It is stored in the atrium as a pro-hormone made of 126 amino acids and is cleaved by serine protease corine into an N-terminal part and the biologically active ANF, which is often used as a cardiac-specific marker protein. In cell differentiation measurements, i.e. in determining the extent to which certain cells have become “cardiac cell-like” by differentiation, often a reporter gene located downstream of the ANF gene is used, as it expression product is easier to detect than the concentration of ANF in a cellular culture, for example, a luciferase gene. Luciferase in an enzyme which catalyzes the oxidation of a luminescent substrate (luciferine). While that happens, light is emitted, and the intensity of that light is correlated with the expression level of ANF and can therefore serve as a measure of ANF expression.
(§2) Initial attempts of ANF expression screenings were performed with P19 cells, i.e. murine embryonal carcinoma cells obtained from the ATCC, or C2C12 cells, i.e. a murine myoblast cell line, as models. In preparation, a plasmid was first constructed by amplifying a gene fragment containing a rat ANF promoter region and subcloning it into the PCL3-BV luciferase reporter plasmid of Promega. The P19 cells were temporarily transfected with said plasmid and cultured in Modified Eagle's Medium alpha (MEM-α) with 7.5% neonatal calf serum and 2.5% fetal bovine serum at 37° C. under 5% CO2 in monolayers for 8 days, during which the medium was exchanged three times. The respective compounds were added at about 60% confluence in DMSO as solvents at a concentration of 1 μM or DMSO alone (as a blank). The luminescence of the samples was measured with a Perkin Elmer Victor V 1420 Multilabel Counter. Their increase or decrease in the presence of the compounds of formula (I) is given in Table 1 below in relation to the blank.
(§3) The evaluations have the following meanings: • − decrease of luminescence compared to the blank value; • + measurable increase; • ++ at least 1.5-fold increase; • +++ at least 2-fold increase; • * represents C2C12 cells; and • ** represents P19 cells.

The test system of series [2] is Atrial natriuretic factor (ANF) expression, P19 cells. Description: ANF test (ANF promoter luciferase reporter) in P19 cells. The format is cell-based, murine. More on the design: key to Evaluation (luminescence in relation to the blank): −: decrease of luminescence compared to the blank value; +: measurable increase; ++: at least 1.5-fold increase; +++: at least 2-fold increase. Conditions: for Evaluation (luminescence in relation to the blank) / fold induction at 1 µM: P19 cells (**), compound 1 μM in DMSO, 8 days culture, relative to DMSO blank; for fold induction at 1 µM: Mus musculus, 192 h, read-out: Evaluation (luminescence in relation to the blank).
Excerpt: as §1, §2, §3
On the technique in general: Reporter assays use an easily measured gene product as a stand-in for the process of interest.

For a further series, the system named is zebrafish embryos. Conditions: literature (Peterson et al.); cited from earlier work.

The structures appear in SMILES notation. Where only a bound is given, the exact number is not on record here.

As to `COc1ccc(Nc2nc(Cl)nc(NCCCO)n2)cc1` [(2), 3-[4-chloro-6-(4-methoxyphenylamino)-1,3,5-triazin-2-ylamino]propan-1-ol], the melting point was 155 to 159 °C. Further, the “Evaluation (luminescence in relation to the blank)” value (“Evaluation” for short) in series [1] is given as “++* (at least 1.5-fold increase)”. In series [1] (C2C12 cells, 1 μM), the “efficiency in ANF test, stated in words” value was “very good efficiency”.

In turn, `COC(=O)c1cccc(Nc2nc(Oc3ccccc3)nc(Oc3ccc(C#N)cc3)n2)c1` [(12), 3-{[4-(4-cyanophenoxy)-6-phenoxy-1,3,5-triazin-2-yl]amino}benzoic acid methyl ester] yielded a melting point of 116.5 to 120 °C. The “Evaluation” value in series [2] was “−**”.

In turn, `O=C(O)c1cccc(Nc2nc(Oc3ccccc3)nc(Oc3ccc(Cl)cc3)n2)c1` [(29), 3-{[4-(4-chlorophenoxy)-6-phenoxy-1,3,5-triazin-2-yl]amino}benzoic acid] yielded a melting point of 244 to 247 °C. In series [2], the fold induction at 1 µM is at least 2.

As to `O=C(O)c1cccc(Nc2nc(Oc3ccccc3)nc(Oc3cccc(Cl)c3)n2)c1` [(30), 3-{[4-(3-chlorophenoxy)-6-phenoxy-1,3,5-triazin-2-yl]amino}benzoic acid], the melting point lay within 227 to 230 °C. Moreover, in series [2], the fold induction at 1 µM is at least 1.5.

With `O=C(O)c1cccc(Nc2nc(Oc3ccccc3)nc(Oc3ccccc3Cl)n2)c1` [(31), 3-{[4-(2-chlorophenoxy)-6-phenoxy-1,3,5-triazin-2-yl]amino}benzoic acid], the melting point was 249.5 to 251.5 °C. In addition, in series [2], the fold induction at 1 µM was at least 1.5.

The compound `CC(C)(C)c1ccc(Oc2nc(Nc3cccc(C(=O)O)c3)nc(Oc3ccccc3)n2)cc1` [(32), 3-{[4-(4-t-butylphenoxy)-6-phenoxy-1,3,5-triazin-2-yl]amino}benzoic acid] returned a melting point of 245 to 247 °C. Further, the “Evaluation” value in series [2] is given as “+**”.

Regarding `COc1ccc(Oc2nc(Nc3cccc(C(=O)O)c3)nc(Oc3ccccc3)n2)cc1` [(33), 3-{[4-(4-methoxyphenoxy)-6-phenoxy-1,3,5-triazin-2-yl]amino}benzoic acid], the melting point was in the range of 233 to 236.5 °C. Besides, the “Evaluation” value in series [2] is on record as “+**”.

`N#Cc1ccc(Oc2nc(Nc3cccc(C(=O)O)c3)nc(Oc3ccccc3)n2)cc1` [(34), 3-{[4-(4-cyanophenoxy)-6-phenoxy-1,3,5-triazin-2-yl]amino}benzoic acid] had a melting point of 150 °C. Besides, the “Evaluation” value in series [2] is reported as “+**”.

Turning to `O=C(O)c1cccc(Nc2nc(Oc3ccccc3)nc(Oc3cccc([N+](=O)[O-])c3)n2)c1` [(35), 3-{[4-(3-nitrophenoxy)-6-phenoxy-1,3,5-triazin-2-yl]amino}benzoic acid], the melting point was in the range of 225 to 228 °C. For the same compound, the fold induction at 1 µM in series [2] is at least 1.5.

`COc1cc(C=O)ccc1Oc1nc(Nc2cccc(C(=O)O)c2)nc(Oc2ccccc2)n1` [(36), 3-{[4-(4-formyl-2-methoxyphenoxy)-6-phenoxy-1,3,5-triazin-2-yl]-amino}benzoic acid] gave a melting point of 217.5 to 220 °C. For the same compound, the fold induction at 1 µM in series [2] is at least 2. For the same compound, the “increased ANF expression (peak value)” value in series [2] (P19 cells, 1 μM, relative to blank) is “more than threefold”.

On to `COc1ccc(Oc2nc(Nc3cccc(C(=O)O)c3)nc(Oc3ccc(C#N)cc3)n2)cc1` [(38), 3-{[4-(4-cyanophenoxy)-6-(4-methoxyphenoxy)-1,3,5-triazin-2-yl]-amino}benzoic acid], for which the melting point was 240.5 to 242.5 °C. In addition, the fold induction at 1 µM in series [2] was at least 1.5.

Consider `OCc1ccc(Nc2nc(Oc3ccccc3)nc(Oc3ccccc3)n2)cc1` [(39), {4-[(4,6-diphenoxy-1,3,5-triazin-2-yl)amino]phenyl}methanol], for which the melting point was in the range of 152.5 to 154 °C. Besides, in series [2], the fold induction at 1 µM is at least 2.

`OCc1cccc(Nc2nc(Oc3ccccc3)nc(Oc3ccccc3)n2)c1` [(40), {3-[(4,6-diphenoxy-1,3,5-triazin-2-yl)amino]phenyl}methanol] returned a melting point of 49 to 52 °C. Also, in series [2], the “Evaluation” value is “+**”.

In turn, `OCc1cccc(Nc2nc(Oc3ccccc3)nc(Oc3ccc(Cl)cc3)n2)c1` [(41), {3-[(4-(4-chlorophenoxy)-6-phenoxy-1,3,5-triazin-2-yl)amino]phenyl}-methanol] displayed a melting point of 110.5 to 114 °C. The “Evaluation” value in series [2] is “−** and (41) (p-chloro): −”.

Compound `OCc1cccc(Nc2nc(Oc3ccccc3)nc(Oc3ccccc3Cl)n2)c1` [(43), {3-[(4-(2-chlorophenoxy)-6-phenoxy-1,3,5-triazin-2-yl)amino]phenyl}-methanol] showed a melting point of 52 to 54 °C. Moreover, the “Evaluation” value in series [2] was “−** and (43) (o-chloro): −”.

`CC(C)(C)c1ccc(Oc2nc(Nc3cccc(CO)c3)nc(Oc3ccccc3)n2)cc1` [(44), {3-[(4-(4-t-butylphenoxy)-6-phenoxy-1,3,5-triazin-2-yl)amino]phenyl}-methanol] gave a melting point of 47 to 50 °C. Further, the fold induction at 1 µM in series [2] is at least 2.

With `COc1ccc(Nc2nc(Cl)nc(NCCO)n2)cc1` [Compound (1), 2-[4-chloro-6-(4-methoxyphenylamino)-1,3,5-triazin-2-ylamino]ethanol], the melting point is 169 to 173 °C. In series [1], the “Evaluation” value is “+*”.

With `O=C(O)c1cccc(Nc2nc(Oc3ccccc3)nc(Oc3ccccc3)n2)c1` [DTAB, 3-[(4.6-diphenoxy-1,3,5-triazin-2-yl)amino]benzoic acid, reference compound], the “influence on embryo development” value in the series on zebrafish embryos was “substantial influence on the formation of the anterior-posterior (A-P) axis and organ development in embryos”. In addition, the “Evaluation” value in series [1] and in series [2] was “−* −**” throughout. Besides, the “ANF expression level / efficiency, stated in words” value in series [2] (ANF test, P19 cells (DTAB and summary statements also cover C2C12)) was “substantially no changes in the ANF expression level were found, even a slight decrease”.

A word on the melting point: it is the temperature of the solid-liquid transition.
